From article PMC8225045, “Chemical Synthesis and Structure-Activity Relationship Study Yield Desotamide a Analogues with Improved Antibacterial Activity” (Marine Drugs, 2021)
Converted amounts (≈) assume the structure as drawn. Where two headings read alike, the source gives them in different places. Non-standard residues stand in square brackets, D forms with d. Residues, ends and D or L forms follow the SMILES beside them. aIle = CC[C@@H](C)[C@H](N)C(=O)O; dOrn = NCCC[C@@H](N)C(=O)O

What was measured:
[1] = system: Gram-positive pathogens; settings: for fold increase of antibacterial activities compared to desotamide A (1): entire test panel of Gram-positive bacteria; for Gram positive antibacterial activity for desotamides (in words) / Gram positive antibacterial activity for wollamides (in words): summary; for Gram positive antibacterial activity for desotamides (in words): Figure 2; for Gram positive antibacterial activity for wollamides (in words): Figure 3
Procedure: (§1) All the synthesized cyclopeptides (7–19) and the desotamide A (1) isolated from S. scopuliridis SCSIO ZJ46 were evaluated for antibacterial activities against a series of Gram-positive pathogens including […] Staphylococcus aureus ATCC29213, Bacillus subtilis BS01, Micrococcus luteus ML01, Enterococcus faecalis ATCC29212; 3 drug-resistant poultry pathogens Staphylococcus simulans LJH13, Enterococcus gallinarum LJH11, Staphylococcus haemolyticus LJH9; 4 clinical methicillin-resistant Staphylococcus aureus (MRSA) shhs-E1, MRSA 16339, MRSA 745524, MRSA 16162. Their antibacterial activities against the […] pathogens Escherichia coli ATCC 13,124 and clinical drug-resistant Klebsiella pneumonia 15580 were also assayed.
(§2) Ampicillin, vancomycin and polymyxin were used as control. The maximum test concentrations for all the compounds were 128 μg/mL.

[2] = system: Klebsiella pneumoniae 15580
Procedure: as §1, §2

[3] = system: Gram-negative pathogens; settings: weak activity; summary of Table 1
Procedure: as §1, §2

[4] = system: MRSA 16339; test: microbe, parasite or virus in culture
Procedure: as §1, §2

[5] = system: Enterococcus gallinarum LJH11; test: microbe, parasite or virus in culture
Procedure: as §1, §2

[6] = system: Staphylococcus haemolyticus LJH9; test: microbe, parasite or virus in culture
Procedure: as §1, §2

[7] = system: Bacillus subtilis BS01; test: microbe, parasite or virus in culture
Procedure: as §1, §2

[8] = system: methicillin-resistant Staphylococcus aureus (MRSA) shhsE1; test: microbe, parasite or virus in culture
Procedure: as §1, §2

[9] = system: MRSA 745524; test: microbe, parasite or virus in culture
Procedure: as §1, §2

[10] = system: Enterococcus faecalis ATCC 29212; test: microbe, parasite or virus in culture
Procedure: as §1, §2

[11] = system: MRSA 16162; test: microbe, parasite or virus in culture
Procedure: as §1, §2

[12] = system: Staphylococcus simulans LJH13; test: microbe, parasite or virus in culture
Procedure: as §1, §2

[13] = system: Staphylococcus aureus ATCC 29213; test: microbe, parasite or virus in culture
Procedure: as §1, §2

[14] = system: Micrococcus luteus ML01; test: microbe, parasite or virus in culture
Procedure: as §1, §2

[15] = system: E. coli ATCC 13124
Procedure: as §1, §2

[16] = system: Staphylococcus aureus; set-up: method as in PMID 25229313; settings: previous report; cited from earlier work
[17] = no notable antibacterial activities; cited from earlier work
From the text: Comparison of the naturally produced desotamides, a preliminary SAR of this class of compounds has been defined.

[18] = E. coli ATCC 13124, two-fold serial dilution, Mueller-Hinton broth, 96-well plate, CLSI-based, maximum test concentration 128 μg/mL
[19] = clinical drug-resistant Klebsiella pneumoniae 15580, two-fold serial dilution, Mueller-Hinton broth, 96-well plate, CLSI-based, maximum test concentration 128 μg/mL
[20] = clinical MRSA shhsE1, two-fold serial dilution, Mueller-Hinton broth, 96-well plate, CLSI-based, maximum test concentration 128 μg/mL

Compound	Gram positive antibacterial activity for desotamides (in words) [1]	MIC [2]; 15580	MIC [4]; 16339	MIC [5]	MIC [6]	MIC ([7]; BS01)	MIC ([8]; methicillin-resistant shhsE1)	MIC [9]; 745524	MIC ([10]; ATCC 29212)	MIC [11]; 16162	MIC [12]	MIC ([13]; ATCC 29213)	MIC ([14]; ML01)	MIC [15, 18]	further results
CC[C@H](C)[C@@H]1NC(=O)[C@H](CC(N)=O)NC(=O)[C@@H](CCCNC(=N)N)NC(=O)[C@H](Cc2c[nH]c3ccccc23)NC(=O)[C@H](CC(C)C)NC(=O)[C@@H](CC(C)C)NC1=O [Compound 15, Desotamide A6] (cyclo(I[dL]LW[dR]N))	2–4-Fold more active than 1	>128 µg/mL	16 µg/mL (≈ 20.1 µM)	128 µg/mL (≈ 161 µM)	32 µg/mL (≈ 40.2 µM)	8 µg/mL (≈ 10.1 µM)	8 µg/mL (≈ 10.1 µM)	8 µg/mL (≈ 10.1 µM)	32 µg/mL (≈ 40.2 µM)	16 µg/mL (≈ 20.1 µM)	8 µg/mL (≈ 10.1 µM)	16 µg/mL (≈ 20.1 µM)	8 µg/mL (≈ 10.1 µM)		MIC values against Gram-positive pathogens (summary over the panel) [1]: 8 to 32 µg/mL; fold increase of antibacterial activities compared to desotamide A (1) [1]: 2–4 fold; MIC against the Gram-negative pathogens tested (summary) [3]: 64 to 128 µg/mL
CC(C)C[C@@H]1NC(=O)[C@H](Cc2c[nH]c3ccccc23)NC(=O)[C@@H](CCCN)NC(=O)[C@H](CC(N)=O)NC(=O)[C@H](C(C)C)NC(=O)[C@@H](CC(C)C)NC1=O [Compound 7, Wollamide B] (cyclo([dOrn]WL[dL]VN))														128 µg/mL (≈ 173 µM)	Gram positive antibacterial activity for wollamides (in words) [1]: Moderately active; MIC [2, 19]: >128 µg/mL; MIC ([4]; clinical MRSA 16339, two-fold serial dilution, Mueller-Hinton broth, 96-well plate, CLSI-based, maximum test concentration 128 μg/mL): 64 µg/mL (≈ 86.5 µM); MIC ([5]; Enterococcus gallinarum LJH11, drug-resistant poultry pathogen, two-fold serial dilution, Mueller-Hinton broth, 96-well plate, CLSI-based, maximum test concentration 128 μg/mL): >128 µg/mL; MIC ([6]; Staphylococcus haemolyticus LJH9, drug-resistant poultry pathogen, two-fold serial dilution, Mueller-Hinton broth, 96-well plate, CLSI-based, maximum test concentration 128 μg/mL): 64 µg/mL (≈ 86.5 µM); MIC ([7]; Bacillus subtilis BS01, two-fold serial dilution, Mueller-Hinton broth, 96-well plate, CLSI-based, maximum test concentration 128 μg/mL): 32 µg/mL (≈ 43.2 µM); MIC [8, 20]: 32 µg/mL (≈ 43.2 µM); MIC ([9]; clinical MRSA 745524, two-fold serial dilution, Mueller-Hinton broth, 96-well plate, CLSI-based, maximum test concentration 128 μg/mL): 32 µg/mL (≈ 43.2 µM); MIC ([10]; Enterococcus faecalis ATCC 29212, two-fold serial dilution, Mueller-Hinton broth, 96-well plate, CLSI-based, maximum test concentration 128 μg/mL): 128 µg/mL (≈ 173 µM); MIC ([11]; clinical MRSA 16162, two-fold serial dilution, Mueller-Hinton broth, 96-well plate, CLSI-based, maximum test concentration 128 μg/mL): 64 µg/mL (≈ 86.5 µM); MIC ([12]; Staphylococcus simulans LJH13, drug-resistant poultry pathogen, two-fold serial dilution, Mueller-Hinton broth, 96-well plate, CLSI-based, maximum test concentration 128 μg/mL): 16 µg/mL (≈ 21.6 µM); MIC ([13]; Staphylococcus aureus ATCC 29213, two-fold serial dilution, Mueller-Hinton broth, 96-well plate, CLSI-based, maximum test concentration 128 μg/mL): 32 µg/mL (≈ 43.2 µM); MIC ([14]; Micrococcus luteus ML01, two-fold serial dilution, Mueller-Hinton broth, 96-well plate, CLSI-based, maximum test concentration 128 μg/mL): 16 µg/mL (≈ 21.6 µM)
wollamide A [Compound 6]															antibacterial activity against Staphylococcus aureus (in words) [16]: no antibacterial
CC[C@H](C)[C@@H]1NC(=O)[C@H](CC(N)=O)NC(=O)[C@@H](CCCCN)NC(=O)[C@H](Cc2c[nH]c3ccccc23)NC(=O)[C@H](CC(C)C)NC(=O)[C@@H](CC(C)C)NC1=O [Compound 13, Desotamide A4] (cyclo(I[dL]LW[dK]N))	2–4-Fold more active than 1	>128 µg/mL	16 µg/mL (≈ 20.8 µM)	64 µg/mL (≈ 83.3 µM)	32 µg/mL (≈ 41.7 µM)	8 µg/mL (≈ 10.4 µM)	16 µg/mL (≈ 20.8 µM)	16 µg/mL (≈ 20.8 µM)	32 µg/mL (≈ 41.7 µM)	16 µg/mL (≈ 20.8 µM)	8 µg/mL (≈ 10.4 µM)	16 µg/mL (≈ 20.8 µM)	8 µg/mL (≈ 10.4 µM)		MIC values against Gram-positive pathogens (summary over the panel) [1]: 8 to 32 µg/mL; fold increase of antibacterial activities compared to desotamide A (1) [1]: 2–4 fold; MIC ([15]; ATCC 13124): 64 µg/mL (≈ 83.3 µM); MIC against the Gram-negative pathogens tested (summary) [3]: 64 to 128 µg/mL
polymyxin [reference compound]														16 µg/mL	MIC [2, 19]: 2 µg/mL
CC[C@@H](C)[C@@H]1NC(=O)[C@@H](CC(C)C)NC(=O)[C@H](CC(C)C)NC(=O)[C@H](Cc2c[nH]c3ccccc23)NC(=O)CNC(=O)[C@H](CC(N)=O)NC1=O [Compound 1, desotamide A] (cyclo(GWL[dL][aIle]N))	Moderately active	>128 µg/mL	16 µg/mL (≈ 23 µM)	64 µg/mL (≈ 91.8 µM)	128 µg/mL (≈ 184 µM)	32 µg/mL (≈ 45.9 µM)	64 µg/mL (≈ 91.8 µM)	8 µg/mL (≈ 11.5 µM)	64 µg/mL (≈ 91.8 µM)	32 µg/mL (≈ 45.9 µM)	16 µg/mL (≈ 23 µM)	32 µg/mL (≈ 45.9 µM)	32 µg/mL (≈ 45.9 µM)		MIC ([15]; ATCC 13124): >128 µg/mL
CC(C)C[C@@H]1NC(=O)[C@H](Cc2c[nH]c3ccccc23)NC(=O)[C@@H](CCCNC(=N)N)NC(=O)[C@H](CC(N)=O)NC(=O)[C@H](C(C)C)NC(=O)[C@@H](CC(C)C)NC1=O [Compound 8, Wollamide B1] (cyclo([dR]WL[dL]VN))		>128 µg/mL	16 µg/mL (≈ 20.5 µM)	64 µg/mL (≈ 81.8 µM)	32 µg/mL (≈ 40.9 µM)	8 µg/mL (≈ 10.2 µM)		16 µg/mL (≈ 20.5 µM)	32 µg/mL (≈ 40.9 µM)	16 µg/mL (≈ 20.5 µM)	8 µg/mL (≈ 10.2 µM)	16 µg/mL (≈ 20.5 µM)	8 µg/mL (≈ 10.2 µM)	128 µg/mL (≈ 164 µM)	fold increase of anti-Gram-positive activity compared to wollamide B (7) ([1]; Gram-positive bacteria): 2–4 folds; Gram positive antibacterial activity for wollamides (in words) [1]: 2–4-Fold more active than 7; MIC [8, 20]: 16 µg/mL (≈ 20.5 µM)
desotamide G [Compound 5]															MIC, antibacterial activities [17]: > 113 µg/mL
CC[C@@H](C)[C@@H]1NC(=O)[C@H](CC(N)=O)NC(=O)[C@@H](CCCCN)NC(=O)[C@H](Cc2c[nH]c3ccccc23)NC(=O)[C@H](CC(C)C)NC(=O)[C@@H](CC(C)C)NC1=O [Compound 11, Desotamide A2] (cyclo(LW[dK]N[aIle][dL]))	Inactive	>128 µg/mL	>128 µg/mL	>128 µg/mL	>128 µg/mL	>128 µg/mL	>128 µg/mL	>128 µg/mL	>128 µg/mL	>128 µg/mL	>128 µg/mL	>128 µg/mL	>128 µg/mL		
